Reference: patent US7932262B2 (Novartis AG, priority 2006, dated 2011)

Assays:
PC-3 cells = test: Cell Proliferation Assay (Cell Titer Glo), PC-3 cell line; assay type: cell-based; conditions: Homo sapiens, PC-3, Cell Proliferation Assay, PC3; read-out: CPEC50 PC3
Procedure, shortened: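 PC-3 cells, 1000 cells/well, left to adhere 3-5 h, then exposed for 3 days at 37° C to compounds as 1:3 serial dilutions from 500× DMSO stocks diluted in growth medium. Medium then replaced with fresh medium and viability read by Cell Titer Glo luminescence.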

PDK1 kinase = target: T1, PDK1 kinase (Homo sapiens, UniProt O15530); test: PDK1 Kinase Alpha Screen Assay; assay type: biochemical; conditions: PDK1 Kinase Alpha Screen Assay; read-out: PDK1 IC50
T1 sequence (O15530 1-556): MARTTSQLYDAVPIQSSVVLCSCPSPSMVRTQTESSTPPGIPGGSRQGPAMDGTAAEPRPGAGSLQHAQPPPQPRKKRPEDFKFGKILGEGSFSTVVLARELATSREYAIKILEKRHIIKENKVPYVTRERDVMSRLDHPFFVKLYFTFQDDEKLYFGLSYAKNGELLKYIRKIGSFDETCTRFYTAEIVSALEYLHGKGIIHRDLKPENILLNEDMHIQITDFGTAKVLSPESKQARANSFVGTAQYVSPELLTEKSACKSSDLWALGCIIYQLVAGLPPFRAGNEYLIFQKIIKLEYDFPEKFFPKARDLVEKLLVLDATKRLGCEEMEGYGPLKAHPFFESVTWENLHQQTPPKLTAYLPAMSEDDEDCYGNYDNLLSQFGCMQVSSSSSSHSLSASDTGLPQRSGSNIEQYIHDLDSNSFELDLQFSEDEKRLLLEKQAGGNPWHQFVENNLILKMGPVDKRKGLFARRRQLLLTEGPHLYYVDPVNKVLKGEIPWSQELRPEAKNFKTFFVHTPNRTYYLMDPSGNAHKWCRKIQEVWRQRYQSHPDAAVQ
Procedure, shortened: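 Compound in DMSO added to PDK1-4 peptide; PDK1/ATP mix starts reaction (final 50 nM peptide, 10 uM ATP). Runs 3-18 hours, stopped with 90 mM EDTA buffer. Antibody/bead mix added, developed overnight at room temperature, then AlphaScreen signal read.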

Row | Compound | EC50 (PC-3 cells) | IC50 (PDK1 kinase)
1 | c1cc(N2CCOCC2)ccc1Nc1ncc2ccc(OC3CCNCC3)cc2n1 [Compound 614, N-(4-morpholinophenyl)-7-(piperidin-4-yloxy)quinazolin-2-amine] | < 5 µM | < 5 µM
2 | CC(C)NS(=O)(=O)c1ccc(Nc2ncc3c(Cl)ccc(OC4CNC4)c3n2)cc1 [Compound 615, 4-(8-(azetidin-3-yloxy)-5-chloroquinazolin-2-ylamino)-N-isopropylbenzenesulfonamide] | < 5 µM | < 5 µM
3 | O=S(=O)(c1cccc(Nc2ncc3c(Cl)ccc(OC4CNC4)c3n2)c1)N1CCOCC1 [Compound 616, 8-(azetidin-3-yloxy)-5-chloro-N-(3-(morpholinosulfonyl)phenyl)quinazolin-2-amine] | < 5 µM | < 5 µM
4 | Clc1ccc(OC2CCNCC2)c2nc(Nc3cccc(-c4cc[nH]n4)c3)ncc12 [Compound 617, N-(3-(1H-pyrazol-3-yl)phenyl)-5-chloro-8-(piperidin-4-yloxy)quinazolin-2-amine] | 5 to 10 µM | < 5 µM
5 | NS(=O)(=O)c1ccc(Nc2ncc3ccccc3n2)cc1 [Compound 618, 4-(quinazolin-2-ylamino)benzenesulfonamide] | 5 to 10 µM | < 5 µM
6 | C#Cc1cc(-c2ccc(NCCN3CCCC3)nc2)c2nc(Nc3ccc(S(N)(=O)=O)cc3)ncc2c1 [Compound 634, 4-(6-ethynyl-8-(6-(2-(pyrrolidin-1-yl)ethylamino)pyridin-3-yl)quinazolin-2-ylamino)benzenesulfonamide] | < 5 µM | < 5 µM
7 | C#Cc1cc(OC2CN3CCC2CC3)c2nc(Nc3ccc(S(N)(=O)=O)cc3)ncc2c1 (centres unmarked) [Compound 635, 4-(6-ethynyl-8-(quinuclidin-3-yloxy)quinazolin-2-ylamino)benzenesulfonamide] | < 5 µM | < 5 µM
8 | C#Cc1cc2cnc(Nc3ccc(C(=O)NC(C)C)cc3)nc2cc1OC1CCN(C(C)C)CC1 [Compound 636, 4-(6-ethynyl-7-(1-isopropylpiperidin-4-yloxy)quinazolin-2-ylamino)-N-isopropylbenzamide] | < 5 µM | < 5 µM
9 | CC(C)NC(=O)c1ccc(Nc2ncc3cc(-c4nccs4)c(OC4CCN(C(C)C)CC4)cc3n2)cc1 [Compound 638, N-isopropyl-4-(7-(1-isoproylpiperidin-4-yloxy)-6-(thiazol-2-yl)quinazolin-2-ylamino)benzamide] | < 5 µM | < 5 µM
10 | c1cc(N2CCOCC2)ccc1Nc1ncc2cc(C3CC3)c(OC3CCNCC3)cc2n1 [Compound 643, 6-cyclopropyl-N-(4-morpholinophenyl)-7-(piperidin-4-yloxy)quinazolin-2-amine] | < 5 µM | < 5 µM
11 | N#Cc1cc2cnc(Nc3ccc(N4CCOCC4)cc3)nc2cc1OC1CCNCC1 [Compound 644, 2-(4-morpholinophenylamino)-7-(piperidin-4-yloxy)quinazoline-6-carbonitrile] | < 5 µM | < 5 µM
12 | Brc1cc2cnc(Nc3ccc(N4CCOCC4)cc3)nc2cc1OC1CCNCC1 [Compound 650, 6-bromo-N-(4-morpholinophenyl)-7-(piperidin-4-yloxy)quinazolin-2-amine] | < 5 µM | < 5 µM
13 | COc1ccc(Cl)c2cnc(Nc3cc(CN(C)C)cc(NC(C)=O)c3)nc12 [Compound 691] | 5 to 10 µM | < 5 µM

The next lines start with the values.

Row | EC50 (PC-3 cells) | IC50 (PDK1 kinase) | Compound
14 | 5 to 10 µM | < 5 µM | CC(C)NC(=O)c1ccc(Nc2ncc3c(Cl)ccc(OC4CNC4)c3n2)cc1 [Compound 612, 4-(8-(azetidin-3-yloxy)-5-chloroquinazolin-2-ylamino)-N-isopropylbenzamide]
15 | < 5 µM | < 5 µM | O=C(NC1CC1)c1ccc(Nc2ncc3c(Cl)ccc(OC4CNC4)c3n2)cc1 [Compound 613, 4-(8-(azetidin-3-yloxy)-5-chloroquinazolin-2-ylamino)-N-cyclopropylbenzamide]
16 | < 5 µM | < 5 µM | CC(C)N1CCC(Oc2cc3nc(Nc4ccc(N5CCOCC5)cc4)ncc3cc2-c2nccs2)CC1 [Compound 619, 7-(1-isopropylpiperidin-4-yloxy)-N-(4-morpholinophenyl)-6-(thiazol-2-yl)quinazolin-2-amine]
17 | < 5 µM | < 5 µM | CC(C)N1CCC(Oc2cc3nc(Nc4ccc(N5CCOCC5)cc4)ncc3cc2Br)CC1 [Compound 620, 6-bromo-7-(1-isopropylpiperidin-4-yloxy)-N-(4-morpholinophenyl)quinazolin-2-amine]
18 | < 5 µM | < 5 µM | CC(C)N1CCC(Oc2cc3nc(Nc4ccc(N5CCOCC5)cc4)ncc3cc2-c2cn[nH]c2)CC1 [Compound 621, 7-(1-isopropylpiperidin-4-yloxy)-N-(4-morpholinophenyl)-6-(1H-pyrazol-4-yl)quinazolin-2-amine]
19 | < 5 µM | < 5 µM | CC(C)NC(=O)c1ccc(Nc2ncc3cc(C4CC4)c(OC4CCN(C(C)C)CC4)cc3n2)cc1 [Compound 637, 4-(6-cyclopropyl-7-(1-isoproylpiperidin-4-yloxy)quinazolin-2-ylamino)-N-isopropylbenzamide]
20 | < 5 µM | < 5 µM | CC(C)NC(=O)c1ccc(Nc2ncc3cc(C#N)c(OC4CCN(C(C)C)CC4)cc3n2)cc1 [Compound 639]
21 | < 5 µM | < 5 µM | N#Cc1cc2cnc(Nc3ccc(C(=O)N4CCOCC4)cc3)nc2cc1OC1CCNCC1 [Compound 640, 2-(4-(morpholine-4-carbonyl)phenylamino)-7-(piperidin-4-yloxy)quinazoline-6-carbonitrile]
22 | < 5 µM | < 5 µM | C#Cc1cc2cnc(Nc3ccc(C(=O)N4CCOCC4)cc3)nc2cc1OC1CCNCC1 [Compound 641]
23 | < 5 µM | < 5 µM | O=C(c1ccc(Nc2ncc3cc(C4CC4)c(OC4CCNCC4)cc3n2)cc1)N1CCOCC1 [Compound 642, (4-(6-cyclopropyl-7-(piperidin-4-yloxy)quinazolin-2-ylamino)phenyl)(morpholino)methanone]
24 | < 5 µM | < 5 µM | O=C(c1ccc(Nc2ncc3c(Cl)ccc(OC4CCNCC4)c3n2)cc1Cl)N1CCOCC1 [Compound 692, (2-chloro-4-(5-chloro-8-(piperidin-4-yloxy)quinazolin-2-ylamino)phenyl) (morpholino)methanone]
25 | < 5 µM | < 5 µM | O=C(c1ccc(Nc2ncc3c(Cl)ccc(NC4CCNCC4)c3n2)cc1)N1CCOCC1 [Compound 693, (4-(5-chloro-8-(piperidin-4-ylamino)quinazolin-2-ylamino)phenyl)(morpholino)methanone]
26 | < 5 µM | < 5 µM | NC1CCN(c2ccc(Cl)c3cnc(Nc4ccc(C(=O)N5CCOCC5)cc4)nc23)CC1 [Compound 694, (4-(8-(4-aminopiperidin-1-yl)-5-chloroquinazolin-2-ylamino)phenyl)(morpholino)methanone]
27 | 5 to 10 µM | < 5 µM | CC(C)N1CCC(Nc2ccc(Cl)c3cnc(Nc4ccc(C(=O)N5CCOCC5)cc4)nc23)CC1 [Compound 695, (4-(5-chloro-8-(1-isopropylpiperidin-4-ylamino)quinazolin-2-ylamino)phenyl)(morpholino)methanone]
28 | < 5 µM | < 5 µM | C#Cc1cc(OC2CCN(C(C)C)CC2)c2nc(Nc3cccc(N4CCOCC4)c3)ncc2c1 [Compound 697, 6-ethynyl-8-(1-isopropylpiperidin-4-yloxy)-N-(3-morpholinophenyl)quinazolin-2-amine]
